Measured values reported in US8114862B2, “TGR5 modulators and methods of use thereof” (Intercept Pharmaceuticals, Inc., priority 2008, dated 2012).

Tests used:
TGR5+/+ and TGR5-/- mice = test: OGTT in HF-fed TGR5+/+ and TGR5-/- mice before and after treatment; assay type: in vivo, mouse; conditions: for body weight after treatment: HF diet, 30 mg/kg/d 4 weeks
Protocol: […]. […] […]; not statistically different). […]; not statistically different).
Animals were housed and bred according to standardized procedures (Argmann and Auwerx, 2006b). Age-matched male mice were used for all experiments. Genetically engineered mouse models (GEMMs), i.e., TGR5-Tg and TGR5^−/− mice, were generated as described in the Supplemental Data. […]; Research Diets) for at least 8 weeks, as mentioned in the text and figure legends. […] Mouse phenotyping experiments were performed according to EMPRESS protocols (see, for example, Empress (European Mouse Phenotyping Resource of Standardised Screening) website) and were aimed to assess food and water intake, body composition (Argmann et al., 2006a, Curr. Protoc. Mol. Biol. Chapter 29, Unit 29A, 23), energy expenditure (Argmann et al., 2006a, Curr. Protoc. Mol. Biol. Chapter 29, Unit 29A, 23), glucose and lipid homeostasis (Argmann et al., 2006b, Curr. Protoc. Mol. Biol. Chapter 29, Unit 29A, 22); Heikkinen et al., 2007, Curr. Protoc. Mol. Chapter. 29, Unit 29B, 23; Mataki et al., 2007, Mol. Cell. Biol. 27, 8330), and plasma biochemistry (Argmann and Auwerx, 2006a, Curr. Protoc. Mol. Biol. Chapter 29, Unit 29A, 22). Tissues and blood were collected and processed for histopathology, blood chemistry, and gene expression according to standardized procedures (Argmann and Auwerx, 2006a; Feige et al., 2008b; Mark et al., 2007; Watanabe et al., 2006). Hyperinsulinemic euglycemic clamp studies were performed as described (Feige et al., 2008b), with minor modifications including a change in the initial insulin bolus (30 mU/kg) and insulin infusion rate (10 mU/min/kg). Plasma GLP-1 levels were measured by ELISA (Millipore) on blood collected by retro-orbital puncture. […].

in vitro [1] = conditions: human, s9
STC-1 cells = test: STC-1 cell experiments (Cox activity, oxygen consumption, ATP/ADP, GLP-1 release); assay type: cell-based, mouse
PPARδ = target: T1, PPARδ (Homo sapiens, UniProt Q03181); test: PPARδ coactivator recruitment assay
T1 sequence (Q03181 211-439 limits assumed): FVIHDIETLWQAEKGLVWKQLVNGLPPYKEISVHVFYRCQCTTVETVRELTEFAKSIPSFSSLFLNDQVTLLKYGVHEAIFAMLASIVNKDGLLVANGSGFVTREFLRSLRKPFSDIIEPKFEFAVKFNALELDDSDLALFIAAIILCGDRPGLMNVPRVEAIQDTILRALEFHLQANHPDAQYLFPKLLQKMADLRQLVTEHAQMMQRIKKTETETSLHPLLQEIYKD

PXR = PXR (Homo sapiens, UniProt O75469); test: PXR ligands competition assay (binding assay)
Sequence of PXR (O75469 whole entry, species assumed, the tested form may be a part): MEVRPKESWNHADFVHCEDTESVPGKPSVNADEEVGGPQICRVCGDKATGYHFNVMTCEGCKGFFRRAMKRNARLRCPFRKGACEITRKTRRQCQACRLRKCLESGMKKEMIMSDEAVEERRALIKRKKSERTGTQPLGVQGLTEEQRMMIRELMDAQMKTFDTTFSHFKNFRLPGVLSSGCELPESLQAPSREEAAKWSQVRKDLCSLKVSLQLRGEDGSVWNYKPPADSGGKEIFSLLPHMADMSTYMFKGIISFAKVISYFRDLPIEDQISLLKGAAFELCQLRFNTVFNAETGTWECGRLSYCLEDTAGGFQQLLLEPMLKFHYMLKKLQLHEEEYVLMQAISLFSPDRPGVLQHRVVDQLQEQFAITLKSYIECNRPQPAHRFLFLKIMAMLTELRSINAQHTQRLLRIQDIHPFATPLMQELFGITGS

[2] = Biliary secretion and hepatic metabolism in bile fistula rat after femoral infusion (Example 22); assay type: in vivo; conditions: after iv administration
in vitro [3] = conditions: human, HepG2 cells
LXRα = target: T2, LXRα (Homo sapiens, UniProt Q13133); test: LXR coactivator recruitment (alphascreen); assay type: biochemical
T2 sequence (Q13133 1-447): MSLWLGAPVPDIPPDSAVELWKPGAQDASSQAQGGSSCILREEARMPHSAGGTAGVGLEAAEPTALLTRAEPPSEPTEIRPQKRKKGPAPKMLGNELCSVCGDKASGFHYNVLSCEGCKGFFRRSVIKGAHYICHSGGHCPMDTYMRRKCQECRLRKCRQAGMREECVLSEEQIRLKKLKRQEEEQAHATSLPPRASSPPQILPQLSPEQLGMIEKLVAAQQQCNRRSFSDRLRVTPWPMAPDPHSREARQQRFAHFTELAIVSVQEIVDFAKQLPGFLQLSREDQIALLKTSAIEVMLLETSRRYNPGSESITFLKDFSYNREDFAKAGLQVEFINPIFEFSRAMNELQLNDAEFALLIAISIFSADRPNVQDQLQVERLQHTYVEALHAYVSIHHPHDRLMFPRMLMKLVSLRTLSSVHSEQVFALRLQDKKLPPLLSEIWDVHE

[4] = Bile flow in bile fistula rat after femoral infusion (Example 22); assay type: in vivo
ileal explants = test: GLP-1 release ex vivo from ileal explants; design: species or system mouse; conditions: 1 h exposure, explants from 18-weeks HF-fed TGR5-Tg male mice
Protocol: . Pellicciari et al., 2007, J. Med. Chem. 50, 4265-4268). cAMP production was performed as described (Sato et al., 2008, J. Med. Chem. 51, 1831; Watanabe et al., 2006, Nature 439, 484). […] ATP/ADP ratio and GLP-1 release were measured according to the manufacturers' instructions (Biovision and Millipore, respectively). Primary brown adipocytes were prepared as previously described (Watanabe et al., 2006, Nature 439, 484), and ileal explants were prepared according to an established method (Cima et al., 2004, J. Exp. Med. 200, 1635-1646).
Plasma parameters and hepatic and fecal lipid content were measured as described (Mataki et al., 2007, Mol. Cell. Biol. 27, 8330-8339). Hematoxylin and eosin (H&E), Sirius red, and oil red 0 staining were performed as described (Mark al., 2007, Curr. Protoc. Mol. Biol. Chapter 29, Unit 29B, 24), and micrographs were taken on wide-field microscopes (Leica) with a CCD camera. For pancreatic sections, islets were sized and counted from four HE-stained alternated sections spaced of […] using ImageJ software (five animals per group). […] Insulin was extracted after O/N incubation at −20° C. in acid ethanol and measured by ELISA on PBS-diluted samples according to the manufacturer's instructions (Mercodia). GLP-1 release was measured in vitro, ex vivo, and in vivo according to methods known in the art.

What does the source list for CC[C@H]1[C@@H](O)[C@@H]2[C@H](C[C@H](O)[C@]3(C)[C@@H]([C@H](C)C[C@H](C)C(=O)O)CC[C@@H]23)[C@@]2(C)CC[C@@H](O)C[C@@H]12 [Ih3e, 6α-ethyl-(23S)-methyl-3α,7α,12α trihydroxy-5β-cholan-24-oic acid]?
insulin secretion during oral glucose challenge (TGR5+/+ and TGR5-/- mice; TGR5+/+ fed a HF diet): normalization of insulin secretion; glucose tolerance (TGR5+/+ and TGR5-/- mice; TGR5+/+ fed a HF diet, 4 weeks 30 mkd): significantly improved glucose tolerance; body weight after treatment (TGR5+/+ and TGR5-/- mice; TGR5+/+ mice): 43.50 ± 3.47 g; effects on glucose tolerance and insulin secretion (TGR5+/+ and TGR5-/- mice; TGR5-/- mice): blunted; body weight after treatment (TGR5+/+ and TGR5-/- mice; TGR5-/- mice): 52.30 ± 2.72 g; half-life (in vitro [1]): 12.1 h; Cox activity (STC-1 cells): cAMP-dependent increase in Cox activity; cellular oxygen consumption (STC-1 cells): increase in cellular oxygen consumption; impact on GLP-1 release (STC-1 cells; prevented by RNA interference or MDL-12-330A): enhanced by TGR5 overexpression; PPARδ Activation EC50 (PPARδ): No activity; IC50 (PXR): 110 µM; biliary secretion [2]: efficient; EC50 at 4 h (in vitro [3]): > 1000 µM; LXRα Activation EC50 (LXRα): No activity; duration of increased bile flow after the end of the infusion period ([4]; iv infusion): at least 2 hours; bile flow rate ([4]; iv infusion 1 μmol/min/kg for 1 h): significantly increased the bile flow rate; GLP-1 release ex vivo (ileal explants): dramatically and dose-dependently induces the release of GLP-1 ex vivo
